Activity calls are given as the source filed them.
Experiments:
fMet-Leu-Phe receptor = fMet-Leu-Phe receptor (Homo sapiens, UniProt P21462); assay: FPR ligands, dose response (AID 519); type: functional
Protein Tat = Protein Tat (Human immunodeficiency virus type 1 group M subtype B (isolate HXB2)(HIV-1), UniProt P04608); type: functional;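 further: tat binding to TAR RNA read out by fluorescence polarization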
[1] = tested on: Streptococcus sp. 'group A'; assay: growth inhibition of control SK(-) GAS strain, dose response, counter-screen for streptokinase expression inhibitor project, luminescence, kanamycin, BacTiterGlo, confirmation (AID 1900); type: functional, organism-based
Streptokinase A = target: T1, Streptokinase A (Streptococcus pyogenes serotype M1, UniProt P10520); assay: S. pyogenes streptokinase expression inhibitors, potency, dose response, plasminogen activation absorbance, OD405 (AID 1914); type: functional, Streptococcus pyogenes M1 GAS;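 further: secreted streptokinase activity via plasminogen activation per viability signal from cell pellet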
T1 sequence (P10520 whole entry): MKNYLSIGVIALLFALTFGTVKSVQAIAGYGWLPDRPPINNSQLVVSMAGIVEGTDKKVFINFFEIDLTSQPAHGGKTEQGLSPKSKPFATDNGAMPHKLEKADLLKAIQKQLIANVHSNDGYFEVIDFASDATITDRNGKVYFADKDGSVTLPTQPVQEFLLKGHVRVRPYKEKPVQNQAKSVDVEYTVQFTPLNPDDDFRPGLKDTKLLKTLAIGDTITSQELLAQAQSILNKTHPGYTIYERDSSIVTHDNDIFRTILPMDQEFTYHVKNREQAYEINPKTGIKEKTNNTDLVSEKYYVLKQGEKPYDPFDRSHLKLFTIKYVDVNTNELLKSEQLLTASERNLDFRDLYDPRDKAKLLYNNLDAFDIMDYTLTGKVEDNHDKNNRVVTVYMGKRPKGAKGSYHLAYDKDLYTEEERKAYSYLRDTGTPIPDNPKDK

Streptococcus = assay: Group A Streptococcus viability loss, dose response, counter-screen for streptokinase expression inhibitor project, luminescence, BacTiterGlo (AID 1915); type: functional, organism-based;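 further: potency for reduction of bacterial viability or growth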
Fatty acid synthase [2] = target: T2, Fatty acid synthase (Homo sapiens, UniProt P49327); assay: FAS thioesterase domain inhibitors, dose response, biochemical, endpoint fluorescence intensity, uHTS hits (AID 624327); type: functional;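 further: fluorescence from hydrolysis of an O-methyl fluorescein acyl ester substrate by the enzyme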
Fatty acid synthase [3] = target: T2, Fatty acid synthase; assay: FAS thioesterase domain inhibitors, dose response, biochemical, kinetic fluorescence intensity (AID 624326); type: functional;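 further: rate of fluorescence rise from hydrolysis of a fluorogenic O-methyl fluorescein ester substrate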
[4] = ADAM10 inhibitors, peptide cleavage, dose response, biochemical, QFRET (AID 743254);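 further: ADAM10 enzyme with the DM2 quenched FRET peptide as substrate; EDANS fluorescence gain as the protease cuts the substrate; inhibitor potency against ADAM10 proteolytic activity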
[5] = target: Disintegrin and metalloproteinase domain-containing protein 17 (Homo sapiens, UniProt P78536); assay: ADAM17 protease inhibitors, dose response, counter-screen for ADAM10 exosite inhibitor project, biochemical, quenched FRET substrate (AID 743253)
[6] = miR-122 activators in hepatoma reporter cells, dose response, cell-based, Huh7 psiCHECK-miR122, Renilla luciferase, cherry-picked (AID 651956); type: functional;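 further: huh7 hepatoma cells stably carrying a psiCHECK-2 miR-122 sensor plasmid; renilla luciferase signal reporting endogenous miR-122 activity after 48 h compound exposure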
Paired box protein Pax-8 = Paired box protein Pax-8 (Homo sapiens, UniProt Q06710); assay: inhibitors of PAX8-driven TPO luciferase reporter, dose response, RMG-I cells, cherry-pick (AID 687027); type: functional, cell-based;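 further: luciferase reporter driven by Pax8 target thyroperoxidase promoter measured by SteadyGlo luminescence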
[7] = NIH:OVCAR-3 ovarian cancer cell cytotoxicity, dose response, PAX8 inhibitor project, plate reader, dry powder samples (AID 743044); type: functional, cell-based
[8] = HEK293T cytotoxicity, dose response, cytotoxicity control for miR-122 modulator project, cell-based, inhibitor set, cherry-pick, set 2 (AID 720697); type: functional
[9] = HEK293T cytotoxicity, dose response, cytotoxicity control for miR-122 modulator project, cell-based, activator set, cherry-pick (AID 720690); type: functional;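 further: HEK293T human cells scored for general mammalian cytotoxicity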
Galanin receptor type 3 = target: T3, Galanin receptor type 3 (Homo sapiens, UniProt O60755); assay: Fluorescence-based cell-based primary high throughput dose response assay to identify antagonists of the Galanin Receptor 3 (GalR3).; type: functional
T3 sequence (O60755 whole entry): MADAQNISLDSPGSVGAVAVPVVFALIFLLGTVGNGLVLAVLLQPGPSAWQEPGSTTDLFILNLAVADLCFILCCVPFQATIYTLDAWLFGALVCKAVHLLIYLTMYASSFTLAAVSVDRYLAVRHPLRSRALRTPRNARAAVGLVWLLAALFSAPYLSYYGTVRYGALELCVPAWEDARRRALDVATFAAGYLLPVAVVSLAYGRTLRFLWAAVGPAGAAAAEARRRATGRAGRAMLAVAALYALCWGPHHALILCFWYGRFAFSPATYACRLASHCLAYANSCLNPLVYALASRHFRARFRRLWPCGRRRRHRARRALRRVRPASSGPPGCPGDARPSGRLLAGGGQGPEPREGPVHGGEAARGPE

cells = type: functional, cell-based; conditions: HEK-CNG
[10] = ZM109 Env clade C HIV-1 fusion inhibitors, dose response, HeLa effector, CEM target cells, luciferase, cherry-pick (AID 652058); type: functional, cell-based
[11] = off-target signal loss in HeLa-CEM21 co-culture – HeLa F-luc CTL cells, cherry-picked, counter-screen for HIV-1 Env fusion inhibitor project, dose response (AID 652040); type: functional, cell-based;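 further: potency for signal decrease marking cytotoxic or nonspecific inhibition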
[12] = inhibitors of clade B AD8 Env fusion, dose response, cell-based, cherry-pick (AID 652062); type: functional;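 further: luciferase signal from cell-cell fusion driven by HIV-1 clade B AD8 Env; potency is for inhibitors of fusion seen as a drop in luminescence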
[13] = target: COUP transcription factor 2 (Homo sapiens, UniProt P24468); assay: Luminescence-based cell-based high throughput dose response assay to identify inhibitors of COUP-TFII (NR2F2).; type: functional;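 further: HEK293 cells transiently cotransfected with COUP-TFII expression vector and reporter; luciferase reporter luminescence driven by COUP-TFII from the pX2-168 reporter plasmid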
[14] = IOSE-T80 ovarian epithelial cell cytotoxicity, dose response, cytotoxicity control for PAX8 inhibitor project, plate reader, dry powder samples (AID 743045); type: functional, cell-based
[15] = A2780 ovarian cancer cell cytotoxicity, dose response, cytotoxicity control, plate reader, dry powder samples (AID 743046); type: functional, cell-based
[16] = A549 cell cytotoxicity, dose response, cytotoxicity control, plate reader, cherry-pick, antagonist series (AID 743412); type: functional, cell-based
[17] = HepG2 cell cytotoxicity, dose response, cytotoxicity control, plate reader, cherry-pick, antagonist series (AID 743416); type: functional, cell-based
[18] = IGROV1 ovarian cancer cell cytotoxicity, dose response, PAX8 inhibitor project, plate reader, dry powder samples (AID 743043); type: functional, cell-based; conditions: IGROV-1
[19] = LGR2 antagonists, dose response, cell-based, HEK293, CRE-luciferase reporter, cherry pick, set 2 (AID 743343); type: functional;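 further: transfected cells were stimulated with diluted bursicon conditioned medium after compound addition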
[20] = MC4R antagonists, dose response, counter-screen for LGR2 antagonist project, cell-based, plate reader, cherry pick (AID 743444); type: functional;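 further: transfected HEK 293 cells stimulated with alpha-MSH peptide; potency of inhibitors of the alpha-MSH evoked signal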
[21] = cytotoxicity in OVCAR8 ovarian cancer cells, dose response, PAX8 project, cell-based, plate reader, dry powder samples (AID 743197); type: functional; conditions: OVCAR-8
[22] = HEK293 cell cytotoxicity, dose response, cytotoxicity control, plate reader, cherry-picked samples (AID 743446); type: functional, cell-based
[23] = P. falciparum 3D7-ScDHODH growth inhibitors, dose response, SYBR Green, dry powder samples (AID 1159570); type: functional, cell-based;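 further: parasite growth measured after 72 hours of compound exposure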
[24] = HepG2 cell cytotoxicity, dose response, cytotoxicity control, plate reader, dry powder samples (AID 1159569); type: functional, cell-based;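 further: inhibitor potency with signal falling toward the positive control level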
[25] = P. falciparum Dd2 growth inhibitors, dose response, SYBR Green, cherry-picked samples (AID 1159567); type: functional, cell-based
[26] = P. falciparum Dd2 growth inhibitors, dose response, SYBR Green, dry powder samples (AID 1159566); type: functional, cell-based;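 further: potency for growth inhibition with lower SYBR green DNA signal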
[27] = P. falciparum ATP4 D1247Y mutant growth inhibitors, dose response, NITD609-resistant line, SYBR Green, dry powder (AID 1159571); type: functional, cell-based;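 further: parasites synchronized at ring stage by sorbitol before testing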
[28] = HepG2 cell cytotoxicity, dose response, cytotoxicity control, cherry-picked samples (AID 1159577); type: functional, cell-based

Sequence of fMet-Leu-Phe receptor (P21462 whole entry): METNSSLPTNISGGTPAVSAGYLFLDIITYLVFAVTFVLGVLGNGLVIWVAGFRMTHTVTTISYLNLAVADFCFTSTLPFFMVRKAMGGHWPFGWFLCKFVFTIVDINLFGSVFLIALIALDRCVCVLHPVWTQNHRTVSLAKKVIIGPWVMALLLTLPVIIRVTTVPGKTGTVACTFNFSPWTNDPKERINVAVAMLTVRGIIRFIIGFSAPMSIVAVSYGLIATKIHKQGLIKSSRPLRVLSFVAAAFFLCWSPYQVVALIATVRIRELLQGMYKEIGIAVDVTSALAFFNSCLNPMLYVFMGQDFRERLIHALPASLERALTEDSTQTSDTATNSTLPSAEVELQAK
T2 sequence (P49327 whole entry, the tested form may be a part): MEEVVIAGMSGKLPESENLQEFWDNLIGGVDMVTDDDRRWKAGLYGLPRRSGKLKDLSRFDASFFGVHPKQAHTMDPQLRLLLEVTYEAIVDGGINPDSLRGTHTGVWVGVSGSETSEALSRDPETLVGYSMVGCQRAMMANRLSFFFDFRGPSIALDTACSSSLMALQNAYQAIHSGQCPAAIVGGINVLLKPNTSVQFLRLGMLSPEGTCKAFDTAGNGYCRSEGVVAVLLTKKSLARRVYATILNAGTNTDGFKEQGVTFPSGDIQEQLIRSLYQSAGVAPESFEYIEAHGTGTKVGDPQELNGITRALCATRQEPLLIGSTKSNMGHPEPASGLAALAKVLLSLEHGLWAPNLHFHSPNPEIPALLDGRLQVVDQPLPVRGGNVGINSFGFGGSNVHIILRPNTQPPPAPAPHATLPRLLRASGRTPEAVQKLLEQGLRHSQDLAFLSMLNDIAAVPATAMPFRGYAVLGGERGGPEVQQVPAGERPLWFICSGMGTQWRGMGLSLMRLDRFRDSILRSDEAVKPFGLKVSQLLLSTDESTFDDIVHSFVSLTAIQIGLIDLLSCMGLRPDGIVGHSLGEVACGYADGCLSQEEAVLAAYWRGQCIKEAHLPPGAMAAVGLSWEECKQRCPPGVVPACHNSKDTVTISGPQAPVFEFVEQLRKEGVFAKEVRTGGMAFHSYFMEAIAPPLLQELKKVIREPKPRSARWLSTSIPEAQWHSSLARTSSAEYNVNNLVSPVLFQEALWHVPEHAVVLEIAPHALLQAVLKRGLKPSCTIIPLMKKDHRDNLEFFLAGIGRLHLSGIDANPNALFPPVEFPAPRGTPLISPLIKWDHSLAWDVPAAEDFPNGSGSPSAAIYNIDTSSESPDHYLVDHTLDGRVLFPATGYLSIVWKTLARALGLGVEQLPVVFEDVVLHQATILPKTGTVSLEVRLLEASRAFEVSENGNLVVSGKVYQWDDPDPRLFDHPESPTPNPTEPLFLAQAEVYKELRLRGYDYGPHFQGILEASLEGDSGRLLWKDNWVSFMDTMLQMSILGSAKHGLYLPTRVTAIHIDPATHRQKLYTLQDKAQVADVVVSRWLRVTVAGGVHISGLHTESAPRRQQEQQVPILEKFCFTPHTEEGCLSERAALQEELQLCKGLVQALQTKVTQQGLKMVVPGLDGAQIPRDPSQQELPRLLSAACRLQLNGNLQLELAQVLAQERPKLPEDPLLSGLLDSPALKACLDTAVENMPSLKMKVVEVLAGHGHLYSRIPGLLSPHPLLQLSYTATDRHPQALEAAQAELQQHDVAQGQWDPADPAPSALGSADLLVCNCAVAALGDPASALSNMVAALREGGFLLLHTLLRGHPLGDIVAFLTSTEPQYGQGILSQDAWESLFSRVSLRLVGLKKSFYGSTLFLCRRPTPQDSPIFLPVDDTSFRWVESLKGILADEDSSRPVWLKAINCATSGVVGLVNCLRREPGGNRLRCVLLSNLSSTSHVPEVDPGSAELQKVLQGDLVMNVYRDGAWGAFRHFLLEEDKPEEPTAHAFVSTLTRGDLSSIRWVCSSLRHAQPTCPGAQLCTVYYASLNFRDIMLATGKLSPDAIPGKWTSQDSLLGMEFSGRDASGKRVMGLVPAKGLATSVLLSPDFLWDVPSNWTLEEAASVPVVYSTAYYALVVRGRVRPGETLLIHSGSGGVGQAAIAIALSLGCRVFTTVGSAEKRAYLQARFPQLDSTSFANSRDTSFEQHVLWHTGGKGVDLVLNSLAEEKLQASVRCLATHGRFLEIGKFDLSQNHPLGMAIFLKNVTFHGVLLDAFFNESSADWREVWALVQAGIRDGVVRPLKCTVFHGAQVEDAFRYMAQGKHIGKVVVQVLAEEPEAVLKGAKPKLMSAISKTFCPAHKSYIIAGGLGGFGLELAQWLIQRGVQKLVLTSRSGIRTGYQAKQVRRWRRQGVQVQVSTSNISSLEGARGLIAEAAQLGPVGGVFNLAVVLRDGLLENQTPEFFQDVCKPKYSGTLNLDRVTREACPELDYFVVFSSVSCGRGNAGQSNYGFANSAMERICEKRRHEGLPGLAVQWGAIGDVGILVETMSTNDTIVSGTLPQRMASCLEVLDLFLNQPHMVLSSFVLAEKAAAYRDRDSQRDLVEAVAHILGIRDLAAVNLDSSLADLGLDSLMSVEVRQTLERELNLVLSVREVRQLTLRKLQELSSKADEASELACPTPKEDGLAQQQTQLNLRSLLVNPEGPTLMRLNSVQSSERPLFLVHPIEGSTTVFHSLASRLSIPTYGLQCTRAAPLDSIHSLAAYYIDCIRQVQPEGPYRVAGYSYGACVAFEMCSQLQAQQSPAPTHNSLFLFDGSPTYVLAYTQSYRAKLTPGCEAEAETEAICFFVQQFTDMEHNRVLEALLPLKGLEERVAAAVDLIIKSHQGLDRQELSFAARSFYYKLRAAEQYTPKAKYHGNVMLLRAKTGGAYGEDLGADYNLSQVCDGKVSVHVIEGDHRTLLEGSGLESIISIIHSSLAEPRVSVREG
Sequence of Paired box protein Pax-8 (Q06710 whole entry): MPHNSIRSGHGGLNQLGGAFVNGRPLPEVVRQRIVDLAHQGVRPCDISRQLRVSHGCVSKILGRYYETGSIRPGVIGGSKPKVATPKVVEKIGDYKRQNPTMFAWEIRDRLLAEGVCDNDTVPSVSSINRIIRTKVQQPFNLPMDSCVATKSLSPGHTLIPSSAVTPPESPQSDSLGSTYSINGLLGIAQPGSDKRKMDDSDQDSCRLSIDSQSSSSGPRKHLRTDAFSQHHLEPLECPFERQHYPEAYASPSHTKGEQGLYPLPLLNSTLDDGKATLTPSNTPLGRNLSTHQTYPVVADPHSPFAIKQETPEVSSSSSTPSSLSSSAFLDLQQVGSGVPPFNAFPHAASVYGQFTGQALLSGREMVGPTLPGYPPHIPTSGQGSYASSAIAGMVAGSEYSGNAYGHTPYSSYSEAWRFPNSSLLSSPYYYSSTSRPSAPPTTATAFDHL
Sequence of Disintegrin and metalloproteinase domain-containing protein 17 (P78536 whole entry, the tested form may be a part): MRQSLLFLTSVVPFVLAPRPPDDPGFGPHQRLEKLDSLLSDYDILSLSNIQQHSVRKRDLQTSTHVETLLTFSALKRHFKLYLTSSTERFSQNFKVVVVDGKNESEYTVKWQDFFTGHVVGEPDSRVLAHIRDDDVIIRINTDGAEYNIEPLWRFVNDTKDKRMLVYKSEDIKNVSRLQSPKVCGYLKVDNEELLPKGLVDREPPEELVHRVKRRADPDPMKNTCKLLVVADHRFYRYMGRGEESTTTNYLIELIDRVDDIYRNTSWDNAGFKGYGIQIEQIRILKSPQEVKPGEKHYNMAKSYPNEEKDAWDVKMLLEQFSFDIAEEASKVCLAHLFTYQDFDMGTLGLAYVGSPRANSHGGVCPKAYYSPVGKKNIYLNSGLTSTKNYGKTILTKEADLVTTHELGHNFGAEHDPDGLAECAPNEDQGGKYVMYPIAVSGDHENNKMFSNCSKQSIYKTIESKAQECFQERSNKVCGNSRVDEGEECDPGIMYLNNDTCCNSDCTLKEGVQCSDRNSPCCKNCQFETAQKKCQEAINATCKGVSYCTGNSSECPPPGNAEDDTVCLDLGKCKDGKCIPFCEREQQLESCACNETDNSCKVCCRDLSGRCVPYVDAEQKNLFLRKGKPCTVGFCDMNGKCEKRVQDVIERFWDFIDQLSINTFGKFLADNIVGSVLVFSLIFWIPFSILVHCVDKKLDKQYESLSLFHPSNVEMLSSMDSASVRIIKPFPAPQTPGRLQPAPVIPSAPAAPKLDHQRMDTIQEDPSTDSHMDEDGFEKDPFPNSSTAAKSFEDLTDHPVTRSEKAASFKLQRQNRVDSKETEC
Sequence of Protein Tat (P04608 whole entry): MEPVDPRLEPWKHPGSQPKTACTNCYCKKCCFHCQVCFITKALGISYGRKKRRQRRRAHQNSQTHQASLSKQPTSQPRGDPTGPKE
Sequence of COUP transcription factor 2 (P24468 whole entry): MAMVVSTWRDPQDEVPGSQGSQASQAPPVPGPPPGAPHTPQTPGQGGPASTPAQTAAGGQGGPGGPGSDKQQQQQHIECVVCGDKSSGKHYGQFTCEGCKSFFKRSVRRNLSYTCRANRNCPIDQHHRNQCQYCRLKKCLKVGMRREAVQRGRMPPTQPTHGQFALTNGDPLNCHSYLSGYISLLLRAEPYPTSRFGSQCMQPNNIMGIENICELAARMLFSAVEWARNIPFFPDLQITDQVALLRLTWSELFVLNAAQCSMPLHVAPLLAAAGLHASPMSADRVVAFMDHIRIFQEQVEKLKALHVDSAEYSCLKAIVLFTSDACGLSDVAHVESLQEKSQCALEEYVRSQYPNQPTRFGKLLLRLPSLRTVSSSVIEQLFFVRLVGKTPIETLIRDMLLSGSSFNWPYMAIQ

## O=C(C1=C(O)C(=O)N(Cc2ccccc2)C1c1ccncc1)c1ccco1 (stereo not given)
fMet-Leu-Phe receptor
  Ki: 13.6 µM (active)

## CC(=O)Oc1cccc(N2C(=O)CC(Nc3ccc(N4CCOCC4)cc3)C2=O)c1 (stereo not given)
Protein Tat
  IC50: 10.5 µM (inconclusive)

## Cc1ccc(NC(=O)c2[nH]cnc2C(=O)N[C@@H](CCCCNC(=O)OC(C)(C)C)C(=O)OC(C)(C)C)cc1
[1]
  EC50: 5.58 µM (active)
Streptokinase A
  EC50: > 150 µM (not active)
Streptococcus
  EC50: 7.99 µM (active)
Fatty acid synthase [2]
  IC50: 2.47 µM (active)
Fatty acid synthase [3]
  IC50: 1.09 µM (active)
[4]
  IC50: > 7.72 µM (active)
[5]
  IC50: > 69.5 µM (inactive)

## COc1ccc(CN(C)C[C@@H]2OCCCC[C@H](C)Oc3ccc(NC(=O)Nc4ccc(C(F)(F)F)cc4)cc3C(=O)N([C@H](C)CO)C[C@@H]2C)cc1
[6]
  AC50: 17.5 µM (active)
Paired box protein Pax-8
  AC50: 20.1 µM (active)
[7]
  AC50: 44.6 µM (active)
[8]
  AC50: 12 µM (active)
[9]
  AC50: 14.5 µM (active)

## O=C(Nc1ccc(Oc2ccccc2)cc1)c1csc([C@H]2C[C@H](O)[C@@H](CO)O2)n1
Galanin receptor type 3
  IC50: 0.4 µM (active)
cells
  EC50: > 29.9 µM (inactive)
[10]
  AC50: 27.4 µM (active)
[11]
  AC50: > 70 µM (inactive)
[12]
  AC50: 5.85 µM (active)
[13]
  IC50: 5.35 µM (active)

## O=C(C1CC1)N1C[C@@H]2N[C@H](C1)[C@@H]2c1ccc(-c2ccncc2)cc1
Paired box protein Pax-8
  AC50: 2.98 µM (active)
[14]
  AC50: 12.2 µM (active)
[15]
  AC50: 12.7 µM (active)
[7]
  AC50: 13.2 µM (active)
[16]
  AC50: 2.89 µM (active)
[17]
  AC50: 21.4 µM (active)
[18]
  AC50: 13.1 µM (active)
[19]
  AC50: 5.41 µM (active)
[20]
  AC50: 4.85 µM (active)
[21]
  AC50: 12.1 µM (active)
[22]
  AC50: 24.5 µM (active)
[23]
  AC50: 0.629 µM (active)
[24]
  AC50: > 100 µM (inactive)
[25]
  AC50: 0.965 µM (active)
[26]
  AC50: 0.555 µM (active)
[27]
  AC50: 0.974 µM (active)

## O=C(NCC1CCCO1)c1ccc(NC(=O)C2CCCCC2C(=O)O)cc1 (stereo not given)
fMet-Leu-Phe receptor
  Ki: > 66.7 µM (inactive)

## OC[C@H]1[C@@H](c2ccc(-c3cccc(F)c3)cc2)[C@@H]2CN(CCC(F)(F)F)CCCCN12
[23]
  AC50: 1.12 µM (active)
[24]
  AC50: 12.8 µM (active)
[25]
  AC50: 1.84 µM (active)
[26]
  AC50: 0.618 µM (active)
[28]
  AC50: 28.5 µM (active)
[27]
  AC50: 0.832 µM (active)

## C[C@@H]1CN([C@@H](C)CO)C(=O)Cc2cc(NC(=O)Nc3ccc(F)cc3)ccc2O[C@H]1CN(C)Cc1ccc(Oc2ccccc2)cc1
[25]
  AC50: 1.5 µM (active)
[28]
  AC50: 15.1 µM (active)

From ChEMBL document CHEMBL1201862, “PubChem BioAssay data set” (2004)
